Data as given in patent publication US6372740B1, “2-aryl-8-oxodihydropurine derivative, process for the producing the same, medicinal compositions containing the same, and intermediates thereof” (Dainippon Pharmaceutical Co., Ltd., priority 1997, dated 2002).

Legend:
BZω3 receptor = target: T1, BZω3 receptor (Rattus norvegicus, UniProt P16257); test: BZω3 (peripheral) benzodiazepine receptor binding assay, [3H] 4'-chlorodiazepam (Ro 5-4864); settings: rat kidney membrane, [3H] Ro 5-4864 0.5 nM, 150 minutes at 0° C.; read-out: ω3 IC50
T1 construct: from tissue; host or cells: rat (Wistar) kidney membrane fraction
Procedure: Experiment 1: Central (ω1,ω2) and Peripheral (ω3) Benzodiazepine Receptor Binding Assays
BZω1 and BZω2 receptor binding assays and the preparation of receptor membrane fractions therefor were carried out according to the method of Stephens, D. N. et al. [cf., J. Pharmacol. Exp. Ther., 253, 334-343 (1990)], and BZω3 receptor binding assay and the preparation of receptor membrane fraction therefor were done according to the method of Schoemaker, H. [cf, J. Pharmacol. Exp. Ther., 225, 61-69 (1983)] each with slight modification.
Receptor membrane fractions for ω1, ω2 and ω3 were prepared from the cerebellum (ω1), spinal cord (ω2) or kidney (ω3) in 7-8 week old male rats of Wistar strain, respectively, by the procedure described below.
After the cerebellum or spinal cord was homogenized with 20 volumes of ice-cold 50 mM Tris-citrate buffer (pH 7.1), the homogenate was centrifuged for 15 minutes at 40,000 g. The pellet obtained was washed 4 times by the same procedure, and frozen and stored for 24 hours at −60° C. The resulting pellet, after being thawed, washed with the buffer and centrifuged, was suspended in the buffer I for the binding assay (50 mM Tris-HCl buffer containing 120 mM NaCl, 5 mM KCl, 2 mM CaCl2 and 1 mM MgCl2; pH 7.4) and the suspension thus obtained (containing 1 g wet tissue/40 ml) was used for the BZω1 and BZω2receptor binding assays. On the other hand, the kidney was homogenized with 20 volumes of the ice-cold buffer II for the binding assay (50 mM Na-K phosphate buffer containing 100 mM NaCl; pH 7.4), and the mixture was filtered through 4 sheets of gauze, and centrifuged for 20 minutes at 40,000 g. The pellet obtained was suspended in the buffer II and the suspension (containing 1 g wet tissue/100 ml) was used for the binding assay as BZω3 receptor membrane source.
[^3H] Flumazenil (Ro 15-1788) (final concentration: 0.3 nM for ω1, and 1 nM for ω2) and flunitrazepam (final concentration: 10 μM) were used for the BZω1 or BZω2 receptor binding assays as the isotope-labeled and unlabeled ligands, respectively. For the BZω3 receptor binding assay, [^3H] 4′-chlorodiazepam (7-chloro-1,3-dihydro-1-methyl-5-(4-chlorophenyl)-2H-1,4-diazepin-2-one) (Ro 5-4864) (final concentration: 0.5 nM) and diazepam (final concentration: 100 μM) were used as the isotope-labeled and unlabeled ligands, respectively. Incubation was performed for 30 minutes at 37° C. in the BZω1 or BZω2 receptor binding assays, and for 150 minutes at 0° C. in the BZω3 receptor binding assay. The BZω1 or BZω2 receptor binding assays were carried out in the presence of bicuculline (final concentration: 100 μM).
The binding assay was performed by the following procedure. After adding each test compound at certain known concentrations, a [^3H] ligand, and the buffer I or II to each test tube, each assay was started by addition of membrane preparation (total volume of 1 ml). After incubation, the assay was terminated by filtration with suction through a Whatman GF/B glass fiber filter using a cell harvester (Brandel, USA). The filters were rapidly washed 3 times with 5 ml of ice-cold 50 mM Tris-HCl buffer (pH 7.7) for ω1 and ω2, or the buffer II for ω3, and transferred to scintillation vials containing 10 ml liquid scintillation cocktail (ACS-II, Amersham, USA). After being allowed to stand for a specific period, retained radioactivity was counted by a liquid scintillation spectrometer. Specific binding of [^3H] ligands was calculated as the difference between amounts of radioactivity bound in the presence and absence of excess unlabeled ligands. The concentration of the test compounds causing 50% inhibition of specific binding of the [3H] ligand (IC50) was determined by probit analysis.

[1] = tested on: mice (stay in light compartment); test: Light and dark box test (anti-anxiety effect); type: in vivo; settings: Mus musculus, po, 0.5 h, male Std-ddY mice, 30 minutes before test, Dunnett test 5%, read-out: Anti-anxiety effect MED (minimum effective dose)
Text: Experiment 2: Light and Dark Box Test (Anti-anxiety Effect)
Anti-anxiety effect of test compounds was examined in a box with light and dark compartments according to the method of Crawley, J. and Goodwin, F. K. [cf., Pharmacol. Biochem. Behav., 13, 167-170 (1980)] with slight modification.
Light and dark box test is a useful, simple and handy method for behaviorally and pharmacologically examining anti-anxiety effect of the drugs, by utilizing the habit of rodents such as mice and rats, etc. which prefer to stay in a dark place, and regarding as positive drug effect the increase of the relative stay of the animals in the light compartment which is an uncomfortable place for the animals. A number of drugs such as cholecystokinin B type receptor antagonists and benzodiazepine drugs, show positive effect in this test.
Light and dark box test was carried out using the test box device (35×17×15 cm) which comprises: a light compartment (20×17×15 cm) consisting of transparent acrylic plates and highly illuminated by an incandescent lamp (1,700 lux); a dark compartment (15×17×15 cm) being made of black acrylic plates connected to the light compartment; and at the boundary of compartments, an opening (4.4×5.0 cm) in which mice can go through freely between two compartments.
Male mice of Std-ddY strain weighing 25-30 g were used in a group of 10. Each trial was started by placing a mouse in the center of the light compartment 30 minutes after oral administration of a test compound, and the time spent by the mouse in the light compartment during a 5 minute observation period was measured, and the rate of the stay of mice in the light compartment to the whole time spent in the experiment was calculated (rate of light compartment stay, %).
The anti-anxiety effect of the test compound was represented by the minimum effective dose (MED) at which the increasing rate of the relative stay in the light compartment was regarded as statistically significant (Dunnett test, significance level: 5%). 4.

[2] = tested on: mice (isoniazid-induced clonic convulsion); test: Isoniazid-induced clonic convulsion test (anti-convulsant effect); type: in vivo, mouse; settings: male Std-ddY mice, oral, 30 minutes before isoniazid 200 mg/kg s.c.; dose prolonging onset time by 25%
Text: Experiment 3: Isoniazid-induced Clonic Convulsion Test (Anti-convulsant Effect)
Isoniazid inhibits glutamate decarboxylase that catalyzes GABA biosynthesis, decrease brain GABA levels, and induces clonic convulsion. According to the method of Auta, J. et al. [cf., J. Pharmacol. Exp. Ther., 265, 649-656 (1993)] with slight modification, antagonistic effects of the test compounds on isoniazid-induced clonic convulsion were examined. […] Such drugs are BZ receptor agonists represented by diazepam, neurosteroids such as allopregnanolone, allotetrahydro-deoxycorticosterone (THDOC) and BZω3 receptor agonists, which enhance the synthesis of neurosteroids.
Male mice of Std-ddY strain weighing 22-24 g were used in a group of 6. Thirty minutes after oral administration of the test compounds, mice were injected with isoniazid (200 mg/kg) subcutaneously, and immediately thereafter, the mice were placed individually in plastic observation cages. The onset time of clonic convulsion was measured (cut-off time: 90 minutes). The latency in the control group was about 40 minutes.
Anti-isoniazid effect of the test compounds was expressed by the dose, which prolonged the onset time by 25% compared to that in the vehicle group (ED25). The ED25 value was calculated according to the Probit method.

mice (lethality) = test: Acute toxicity; type: in vivo, mouse; settings: male Std-ddY mice, oral 2000 mg/kg, observed for 7 days
Procedure: Experiment 4: Acute Toxicity
Male mice of Std-ddY strain weighing 25-30 g were used in a group of 10 animals for examining on the compound of Example 1. A test compound was suspended in 0.5% tragacanth and administered orally to the mice at a dose of 2000 mg/kg.

| IC50 (BZω3 receptor) | melting point | SMILES | minimal effective dose [1] | Anti-convulsant effect ED25 [2] | lethality (mice (lethality)) |
| --- | --- | --- | --- | --- | --- |
| 0.66 nM | 98 to 99 °C | CCCN(CCC)C(=O)Cn1c(=O)n(CC)c2cnc(-c3ccccc3)nc21 [Example 107, 7-ethyl-7,8-dihydro-8-oxo-2-phenyl-N,N-dipropyl-9H-purin-9-acetamide] | 1 to 3 µg/kg | 33.0 mg/kg | – |
| 1.2 nM | – | CCCN(CCC)C(=O)Cn1c(=O)n(C)c2cnc(-c3ccccc3)nc21 [Example 106, 7,8-dihydro-7-methyl-8-oxo-2-phenyl-N,N-dipropyl-9H-purin-9-acetamide] | 1 to 3 µg/kg | 100 mg/kg | – |
| 0.73 nM | 135 to 137 °C | CCCN(CCC)C(=O)Cn1c(=O)n(C)c2cnc(-c3ccc(Cl)cc3)nc21 [Example 112] | – | 73.6 mg/kg | – |

| SMILES | IC50 (BZω3 receptor) | melting point | minimal effective dose [1] | Anti-convulsant effect ED25 [2] | lethality (mice (lethality)) |
| --- | --- | --- | --- | --- | --- |
| CCN(C(=O)Cn1c(=O)n(C)c2nc(-c3ccccc3)ncc21)c1ccccc1 [Example 1, N-ethyl-8,9-dihydro-9-methyl-8-oxo-2-phenyl-N-phenyl-7H-purin-7-acetamide] | 2 nM | – | 1 to 3 µg/kg | – | no lethality |
